# Like-named read-outs stand apart in the source and are kept apart here.
# How the values were obtained:
# ICR mice = test: Rotarod test (in vivo neurotoxicity); design: species or system mouse; settings: 1h 5 or 15 mg/kg, vinblastine 0.5 mg/kg, i.p. daily to day 31
# [1] = system: PC-3 prostate tumor xenograft; test: PC-3 tumor xenograft study in nude mice; type: in vivo, mouse; settings: for mice that lost more than 15% body weight: PC-3 xenograft study; for % T/C: PC-3 xenograft
# From the text: (§1) PC-3 and A375 tumor xenograft studies.
# A375 cells = test: Apoptosis detection by ELISA (cytoplasmic DNA-histone complexes); type: cell-based, human; settings: 24 h
# From the text: (§2) Apoptosis detection by ELISA. Quantification of the enrichment of mono- and oligonucleosomes in the cytoplasm was used to determine the ability of the compounds to induce apoptosis (cell death detection ELISA PLUS, Roche, Germany) following the manufacturer's instructions.
# PC-3 cells = test: as above; type: cell-based, human; settings: 24 h
# From the text: as §2
# WM-164 melanoma cells = test: Microtubule imaging (immunofluorescence, Cellomics Cytoskeleton rearrangement kit); type: cell-based, human; settings: WM-164 cells, 18 h
# From the text: Primary antibody for tubulin and fluorescence-labeled secondary antibody were subsequently added to the cells. Cell nuclei were stained by DAPI. Whole Cell Stain Green was also applied to all cells. All images were acquired with an Olympus IX71 inverted fluorescence microscope (Olympus Corp., Tokyo, Japan) with overlays from separate images of tubulin (red), nuclei (blue), and whole cells (green).
# [2] = system: melanoma (B16-F1, A375, WM-164) and prostate cancer (LNCaP, PC-3, DU 145, PPC-1) cell lines; test: Cytotoxicity SRB assay, ranges or averages quoted over the melanoma and prostate cancer cell lines; type: cell-based
# B16-F1 melanoma cells = test: Melanoma colony formation assay in soft agar; type: cell-based, mouse; settings: 14 days, tested 20, 100, 500 nM
# Description: B16-F1 melanoma cells were plated at a colony-forming density (2000 cells per well on six-well plates) on top of 0.8% base agar. Cells were grown in 0.4% agar together with DMEM medium supplemented with fetal bovine serum and an antibiotic-antimycotic solution at 37° C. in an atmosphere of 95% air and 5% CO2. […] Compounds were added to the media from 1-mM DMSO stock solutions, and a corresponding dilution of DMSO was used as control. Cells were grown for 14 days. Plates were photographed, and the number of colonies was measured by Artek 880 Automated Colony Counter (Artek Systems Corporation, Farmingdale, N.Y.).
# Bovine brain tubulin = Bovine brain tubulin (Bos taurus, UniProt P81947+Q6B856); test: In vitro tubulin polymerization assay; type: biochemical; settings: 10 μM
# Description: In Vitro Tubulin Polymerization Assay.
# In vitro microtubule polymerization assay. […] The spectrophotometer was maintained at 37° C. for tubulin polymerization.
# [3] = system: T1, tubulin colchicine binding site; test: [3H]-colchicine competition-binding scintillation proximity assay; settings: SPA
# T1 construct: […]; other: SPA
# A375 melanoma xenografts = test: A375 tumor xenograft study in athymic nude mice; type: in vivo, mouse; settings: for T − C: tumor growth delay
# From the text: as §1
# PPC-1 = test: Cytotoxicity / cell growth inhibition, SRB assay; settings: Homo sapiens, PPC-1, 96 h, read-out: IC50 ± SEM (nM) PPC-1, Table 12; 96 h exposure
# [4] = Pharmacokinetic study in ICR mice; settings: ICR mice, 15 mg/kg i.v.
# B16-F1 melanoma tumors = test: In vivo anti-tumor activity, B16-F1 melanoma in C57/BL mice; design: species or system mouse; settings: 60 mg/kg i.p. daily, 14 days, C57/BL mice (positive control)
# PC-3 = test: Cytotoxicity / cell growth inhibition, SRB assay; settings: Homo sapiens
# [5] = Aqueous solubility, Multiscreen Solubility Filter Plate, PBS pH 7.4, LC-MS/MS; type: physicochemical; settings: HCl salt of 2r
# in vivo [6] = settings: male, ICR, mouse, plasma, iv, 10 mg/kg
# in vivo [7] = settings: female, Sprague-Dawley, rat, plasma, iv, 5 mg/kg
# [8] = system: prostate cancer cells (LNCaP, DU 145, PC-3, PPC-1); test: Cytotoxicity SRB assay, values quoted for the prostate cancer cell panel; type: cell-based; settings: Homo sapiens, read-out: IC50s against prostate cancer cells (range)
# [9] = range given, read-out: IC50 (range over the tested cancer cell lines)
# [10] = after 20 min incubation, compared to vehicle (Example 11D)
# [11] = quoted in the text to Table 2, read-out: IC50 (range or bound over the tested cancer cell lines)
smiles,measurement,setting,value
"COc1cc(C(=O)c2csc(-c3ccccc3)n2)cc(OC)c1OC [1h, (2-Phenyl-thiazol-4-yl)-(3,4,5-trimethoxy-phenyl)-methanone]",time on the rotating rod compared to the vehicle group,ICR mice,no significant difference
same,mice that lost more than 15% body weight,[1]; 15 mg/kg i.p.,1 of 8
same,concentration inducing apoptosis,A375 cells,50 nM
same,concentration inducing apoptosis,PC-3 cells,50 nM
"COc1ccc(S(=O)(=O)Nc2cccnc2Nc2ccc(O)cc2)cc1 [ABT-751, reference compound]",effect on microtubule arrangement,WM-164 melanoma cells,microtubule fragmentation
"COc1cc(C(=O)c2cccc(-c3ccccc3)c2)cc(OC)c1OC [1a, Biphenyl-3-yl(3,4,5-trimethoxyphenyl)methanone]",IC50 (range over the tested cancer cell lines),[2]; range given,hundreds of nanomolar range
"COc1cc(C(=O)c2c[nH]c(-c3ccc(C)cc3)n2)cc(OC)c1OC [12da, (2-(p-tolyl)-1H-imidazol-4-yl)(3,4,5-trimethoxyphenyl)methanone]",concentration with effective inhibition of B16-F1 melanoma colony formation,B16-F1 melanoma cells,20 nM
same,inhibition of tubulin polymerization,Bovine brain tubulin; 15 min (Example 16),completely inhibited
same,effect on microtubule arrangement,WM-164 melanoma cells,microtubule fragmentation
same,competition for the tubulin colchicine binding site (in words),[3],highest binding affinity
"COc1cc(C(=O)[C@H]2COC(c3ccccc3)=N2)cc(OC)c1OC [35a, (2R)-(2-Phenyl-4,5-dihydro-oxazol-4-yl)-(3,4,5-trimethoxy-phenyl)-methanone]",IC50 (range over the tested cancer cell lines),[2]; range given,hundreds of nanomolar range
COc1cc(C(=O)c2csc(-c3ccccc3)n2)cc(OC)c1OC [SMART-H],T − C,"A375 melanoma xenografts; Melanoma (A375) xenograft, 20 mg/kg i.p.",10 days
"CN(C)c1ccc(-c2nc(C(=O)c3ccc(F)cc3)c[nH]2)cc1 [12gb, (2-(4-(dimethylamino)phenyl)-1H-imidazol-4-yl)(4-fluorophenyl)methanone]",IC50,PPC-1,4 nM
"COc1cc(C(=O)c2csc(-c3ccc(O)cc3)n2)cc(OC)c1OC [2l, (2-(4-Hydroxyphenyl)thiazol-4-yl)(3,4,5-trimethoxyphenyl)methanone]",IC50,[2]; [9],76 to 116 nM
same,inhibition of tubulin polymerization,Bovine brain tubulin; 15 min (Example 22),55%
same,% T/C,[1]; 50 mg/kg i.p.,34%
same,concentration inducing apoptosis,A375 cells,greater than or equal to 200 nM
same,concentration inducing apoptosis,PC-3 cells,greater than or equal to 200 nM
same,Vss relative to that of 1h and 2k (times higher),[4],2-3 times
"COc1cc(C(=NC#N)c2csc(-c3ccccc3)n2)cc(OC)c1OC [2j, N-((2-phenylthiazol-4-yl)(3,4,5-trimethoxyphenyl)methylene)cyanamide]",inhibition of tubulin polymerization,Bovine brain tubulin; [10],64%
"CN(C)/N=N/c1[nH]cnc1C(N)=O [DTIC, 5-(3,3,-dimethyl-1-triazenyl)-imidazole-4-carboxamide]",tumor volume reduction,B16-F1 melanoma tumors,51%
"COc1cc(C(=O)c2coc(-c3ccccc3)n2)cc(OC)c1OC [36a, (2-Phenyl-oxazol-4-yl)-(3,4,5-trimethoxy-phenyl)-methanone]",IC50 (range over the tested cancer cell lines),[2]; range given,hundreds of nanomolar range
"COc1ccc(-c2nc(C(=O)c3ccc(F)cc3)c[nH]2)cc1 [12cb, (4-fluorophenyl)(2-(4-methoxyphenyl)-1H-imidazol-4-yl)methanone]",concentration with effective inhibition of B16-F1 melanoma colony formation,B16-F1 melanoma cells,20 nM
same,effect on microtubule arrangement,WM-164 melanoma cells,microtubule fragmentation
"COc1cc(C(=O)c2csc(Nc3ccccc3)n2)cc(OC)c1OC [5a, (2-(Phenylamino)thiazol-4-yl)(3,4,5-trimethoxyphenyl)methanone]",inhibition of tubulin polymerization,Bovine brain tubulin; [10],78%
"COc1cc(C(=O)c2csc(-c3ccc(CN)cc3)n2)cc(OC)c1OC.Cl [2r, (2-(4-(Aminomethyl)phenyl)thiazol-4-yl)(3,4,5-trimethoxyphenyl)methanone hydrochloride]",IC50,"PC-3; PC-3, 96 h, read-out: IC50 ± SEM (nM) PC-3, SRB assay, 96 h of treatment",80 nM
same,IC50,[2]; [9],13 to 80 nM
same,increase of solubility (fold) over compound 1h,[5],over 35 fold
COc1cc(C(=O)c2csc(-c3ccc(F)cc3)n2)cc(OC)c1OC [2k],inhibition of tubulin polymerization,Bovine brain tubulin; 15 min (Example 22),90%
same,% T/C,[1]; 5 mg/kg i.p.,21%
same,% T/C,[1]; 15 mg/kg i.p.,24%
same,mice that lost more than 15% body weight,[1]; 15 mg/kg i.p.,2 out of 7
same,"% T/C, A375","A375 melanoma xenografts; 1h 20 mg/kg, 2k 15 mg/kg, i.p.",29%
same,"tumor volume, A375","A375 melanoma xenografts; 1h 20 mg/kg, 2k 15 mg/kg, i.p., 34 days",722 mm^3
same,concentration inducing apoptosis,A375 cells,50 nM
same,concentration inducing apoptosis,PC-3 cells,50 nM
"CNCc1ccc(-c2nc(C(=O)c3cc(OC)c(OC)c(OC)c3)cs2)cc1.Cl [2s, (2-(4-((Methylamino)methyl)phenyl)thiazol-4-yl)(3,4,5-trimethoxyphenyl)methanone hydrochloride]",IC50 (range over the tested cancer cell lines),[2]; range given,abrogated activity
"CC[C@]1(O)C[C@@H]2CN(CCc3c([nH]c4ccccc34)[C@@](C(=O)OC)(c3cc4c(cc3OC)N(C)[C@H]3[C@@](O)(C(=O)OC)[C@H](OC(C)=O)[C@]5(CC)C=CCN6CC[C@]43[C@@H]65)C2)C1 [vinblastine, reference compound]",time on the rotating rod compared to the vehicle group,ICR mice,gradually reduced the time
COc1cc(C(=O)c2csc(-c3ccc4[nH]ccc4c3)n2)cc(OC)c1OC [66a],IC50,[2]; [9],7 to 25 nM
same,inhibition of tubulin polymerization,Bovine brain tubulin; [10],81%
"COc1cc(C(=O)c2csc(-c3ccc(CN(C)C)cc3)n2)cc(OC)c1OC.Cl [2u, (2-(4-((Dimethylamino)methyl)phenyl)thiazol-4-yl)(3,4,5-trimethoxyphenyl)methanone hydrochloride]",IC50 (range over the tested cancer cell lines),[2]; range given,abrogated activity
"Cc1ccc(-c2nc(C(=O)c3ccc(F)cc3)c[nH]2)cc1 [12 db, (4-fluorophenyl)(2-(p-tolyl)-1H-imidazol-4-yl)methanone]",inhibition of tubulin polymerization,Bovine brain tubulin; 15 min (Example 16),~80%
"COc1cc(C(=NC#N)c2csc(-c3ccccc3)n2)cc(OC)c1O [compound 32, N-((4-hydroxy-3,5-dimethoxyphenyl)(2-phenylthiazol-4-yl)methylene)cyanamide]",IC50,"PC-3; PC-3, read-out: IC50 (nM) PC-3, Table 6A",229 nM
"COc1cc(/C(=N/O)c2csc(-c3ccccc3)n2)cc(OC)c1OC [2e-cis, (Z)-(2-Phenylthiazol-4-yl)(3,4,5-trimethoxyphenyl)methanone oxime]",IC50,[2]; [11],100 to 300 nM
"COc1cc(C(=O)c2c[nH]c(-c3ccc(Cl)cc3)n2)cc(OC)c1OC [12fa, (2-(4-chlorophenyl)-1H-imidazol-4-yl)(3,4,5-trimethoxyphenyl)methanone]",Vd,in vivo [6],4 L/kg
same,clearance,in vivo [6],61 mL/min/kg
same,Vd,in vivo [7],1.9 L/kg
same,clearance,in vivo [7],16 mL/min/kg
"COc1cc(C(=O)c2cccc(-c3ccccc3)n2)cc(OC)c1OC [1c, (6-Phenylpyridin-2-yl)(3,4,5-trimethoxyphenyl)methanone]",IC50,[8],12 to 35 nM
"COc1cc(/C(=N\O)c2csc(-c3ccccc3)n2)cc(OC)c1OC [2e-trans, (E)-(2-Phenylthiazol-4-yl)(3,4,5-trimethoxyphenyl)methanone oxime]",IC50,[2]; [11],> 10000 nM
"O=C(c1ccc(F)cc1)c1c[nH]c(-c2ccc(OCc3ccccc3)cc2)n1 [12jb, (2-(4-(benzyloxy)phenyl)-1H-imidazol-4-yl)(4-fluorophenyl)methanone]",increase in activity compared with 12 kb (fold),[2],440 fold
COc1cc(C(=O)c2csc(-c3ccc(F)cc3)n2)cc(OC)c1OC [SMART-F],Total log cell kill,"A375 melanoma xenografts; Melanoma (A375) xenograft, 15 mg/kg i.p., doubling time 4.6 d",0.7
same,T − C,"A375 melanoma xenografts; Melanoma (A375) xenograft, 15 mg/kg i.p.",11 days

# Source: patent publication US9334242B2, “Compounds for treatment of cancer” (GTX, INC., priority 2010, dated 2016)
